# Entries after “also recorded” stand apart in the source; their conditions may differ.
# Key:
# Format in all cases: cell-based, human
# [1] = test system: Sema3A; assay: Sema3A protein in NHEK culture supernatant by ELISA; conditions: NHEKs, LL-37 20 μg/ml, 48 hours after stimulation, vs control without LL-37
# Method: (§1) Normal human epidermal keratinocytes (NHEKs) were cultured according to a protocol provided by Lonza. NHEKs were cultured in a 12-well tissue culture plate and, in the growth phase (80% confluence), LL-37 (20 μg/ml) was added alone, or LL-37 (20 μg/ml) and the peptide SLIGRL (SEQ ID NO:2, 100 μM) were added, to the cells. The peptide SLIGRL is a peptide frequently used as a PAR2 agonist, and it is known that activation of PAR2 induces promotion of expression of TSLP in keratinocytes (Wilson et al, Cell, 2013: 155, 285-295). Total RNA was extracted 48 hours after the addition of LL-37, and mRNA expression analysis was carried out by real-time PCR. The culture supernatant was collected, and subjected to analysis of the protein expression level by ELISA. • (3) Analysis of Expression of mRNA of Each Gene
# The expression level of each protein was analyzed by ELISA. The amount of Sema3A in the culture supernatant was measured using an Enzyme-linked Immunosorbent Assay Kit (USCN Life Science) according to the manufacturer's instructions.
# [2] = test system: Sema3A; assay: mRNA expression analysis of Sema3A by real-time PCR in NHEKs; conditions: LL-37 20 μg/ml, 48 hours after stimulation, vs control without LL-37
# Method: as §1
# (§2) The transcription level of each gene was analyzed by quantitative real-time PCR. […] According to the manufacturer's instructions, quantitative real-time PCR was carried out using an Applied Biosystems 7900HT Fast Real-time PCR system (Applied Biosystems) with SYBR Premix Ex Taq (Takara). […] The amount of each mRNA was normalized against the amount of mRNA of RPS18, and finally expressed as the ratio to the mRNA in an untreated control.
# [3] = test system: TSLP; assay: mRNA expression analysis of TSLP by real-time PCR in NHEKs
# Method: as §1, §2
# [4] = test system: hBD-2; assay: mRNA expression analysis of hBD-2 by real-time PCR in NHEKs; conditions: LL-37 20 μg/ml, 48 hours after stimulation, vs control without LL-37
# Method: as §1, §2
# [5] = test system: NGF; assay: mRNA expression analysis of NGF by real-time PCR in NHEKs; conditions: LL-37 20 μg/ml, 48 hours after stimulation, vs control without LL-37
# Method: as §1, §2
# [6] = test system: KAL1; assay: mRNA expression analysis of KAL1 by real-time PCR in NHEKs; conditions: LL-37 20 μg/ml, 48 hours after stimulation, vs control without LL-37
# Method: as §1, §2
# [7] = test system: Artemin; assay: mRNA expression analysis of Artemin by real-time PCR in NHEKs; conditions: LL-37 20 μg/ml, 48 hours after stimulation, vs control without LL-37
# Method: as §1, §2
# [8] = test system: hBD-1; assay: mRNA expression analysis of hBD-1 by real-time PCR in NHEKs; conditions: LL-37 20 μg/ml, 48 hours after stimulation, vs control without LL-37
# Method: as §1, §2
substance,measurement,setting,value
"LL-37: human cathelicidin antimicrobial peptide, LLGDFFRKSKEKIGKEFKRIVQRIKDFLRNLVPRTES, SEQ ID NO:1 (listed as Homo sapiens)",amount of Sema3A protein in the culture supernatant,[1],increase
same,mRNA expression of Sema3A,[2],promoted; also recorded: increases
same,mRNA expression of TSLP,"[3]; LL-37 20 μg/ml alone, 48 hours after stimulation, vs control without LL-37",Suppression; also recorded: decreases
same,mRNA expression of TSLP induced by SLIGRL,"[3]; LL-37 20 μg/ml plus SLIGRL 100 μM (PAR2 agonist), 48 hours",suppression; also recorded: decreased
same,mRNA expression of hBD-2,[4],Promotion; also recorded: increases
same,mRNA expression of NGF,[5],suppressed; also recorded: decreases
same,mRNA expression of KAL1,[6],promoted; also recorded: increases
same,mRNA expression of Artemin,[7],suppressed; also recorded: decreases
same,mRNA expression of hBD-1,[8],Promotion; also recorded: increases
